Results as given in patent US20060240400A1, “High-density cell array board, process for producing the same and method of using the same” (priority 2003, published 2006).

System: rat primary hepatic solid tumor cells
Assay: Chemical assay on high-density cell array substrate (cell morphology after microdispensed dichlorobenzene)
Assay type: cell-based
Details: after 10 minutes, 37° C., 0-4.5 mM in steps of 0.5 mM in 10 pl culture medium, single cells on substrates of Examples 1-5
Method: Poly-N-isopropylacrylamide, polyacrylamide and polydimethylsiloxane were used as cell adhesive polymer, hydrophilic polymer and highly hydrophobic polymer, respectively. These solutions were used for preparing each layer by the procedure described below. First, a solution of N-isopropylacrylamide monomer in isopropyl alcohol at the concentration shown in Table 1 was applied on a polystyrene base in an amount of 0.01 ml/cm^2 in order to prepare a cell adhesive polymer-coated domain. The coating was irradiated with electron beams at a dose of 0.25 MGy to coat the surface of the base with poly-N-isopropylacrylamide. After irradiation, the substrate was thoroughly washed with water and dried to give a substrate having a poly-N-isopropylacrylamide layer. Then, a solution of acrylamide monomer in isopropyl alcohol at the concentration shown in Table 1 was applied on the substrate in an amount of 0.01 ml/cm^2 in order to prepare a cell non-adhesive hydrophilic polymer-coated domain on the preceding layer. The coating was irradiated with electron beams at a dose similar to the value used in the method described above and then washed and dried to give a substrate having a polyacrylamide layer on the poly-N-isopropylacrylamide layer. […]

dichlorobenzene
dichlorobenzene concentration in culture medium at which cells were morphologically altered: ≥ 2.5 mM
